Laboratory results taken from patent publication US20240391870A1 (Arcturus Therapeutics, Inc., priority 2023, published 2024).
Like-named read-outs stand apart in the source and are kept apart here.

Assays:
hEPO = hEPO mRNA expression evaluation (hEPO-LNPs); type: in vivo, Balb/c mice; settings: Table 3; 0.3 mg/kg
[1] = Lipid nanoparticle size, PDI and encapsulation; type: physicochemical; settings: Table 3; for Size (nm): lipid nanoparticle; for EE %: lipid nanoparticle encapsulation
Description: In the context of nucleic acids, full encapsulation may be determined by performing a membrane-impermeable fluorescent dye exclusion assay, which uses a dye that has enhanced fluorescence when associated with nucleic acid. Encapsulation is determined by adding the dye to a lipid formulation, measuring the resulting fluorescence, and comparing it to the fluorescence observed upon addition of a small amount of nonionic detergent. Detergent-mediated disruption of the lipid layer releases the encapsulated nucleic acid, allowing it to interact with the membrane-impermeable dye. Nucleic acid encapsulation may be calculated as E=(I0−I)/I0, where I and I0 refer to the fluorescence intensities before and after the addition of detergent.

[2] = Lipid nanoparticle size, PDI and encapsulation; type: physicochemical; settings: Table 3
[3] = Measured pKa in the indicated formulation
Description: Measured pKa values were determined based on the pH measured in the indicated formulation (i.e., EPO or FVII formulation).

[4] = In vivo biodegradability assay (lipid in liver); settings: Table 3; liver tissue, 0.3 mg/kg dose
factor VII = test: Factor VII knock down evaluation (LNP with FVII siRNA); type: in vivo, Balb/C mice; settings: Table 3; 0.03 mg/kg
Method in brief: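 Female Balb/C mice, 7–8 weeks old, received FVII siRNA lipid nanoparticles intravenously at 0.03 or 0.01 mg/kg. Plasma was collected 48 h later and FVII protein measured by chromogenic assay at 405 nm against a control plasma calibration curve. Levels are relative to saline-treated controls.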

SMILES: CN(C)CCCC(=O)OC(CCCC(=O)OC(COC(=O)CCCC1CCCCC1)COC(=O)CCCC1CCCCC1)CCCC(=O)OC(COC(=O)CCCC1CCCCC1)COC(=O)CCCC1CCCCC1
- EPO expression in ng/mL @ 0.3 mg/kg (hEPO): 19337.84 ng/mL
- Size (nm) [1]: 70.09 nm
- EE % [1]: 93.4%
- PDI [2]: 0.081
- pKa [3]: 6.49
- Invivo lipid degradability ng/g of Liver tissue @ 0.3 mg/kg dose [4]: BLOQ

SMILES: CCn1cc(CCC(C)C(=O)OCC(COC(=O)C(C)CCc2cn(CC)c3ccccc23)OC(=O)CCCN(CCCC(=O)OC(COC(=O)C(C)CCc2cn(CC)c3ccccc23)COC(=O)C(C)CCc2cn(CC)c3ccccc23)C(=O)SCCCN(C)C)c2ccccc21 (stereo not shown) [Lipid 43, ((4,4′-((((3-(dimethylamino)propyl)thio)carbonyl)azanediyl)bis(butanoyl))bis(oxy))bis(propane-2,1,3-triyl)tetrakis(4-(1-ethyl-1H-indol-3-yl)-2-methylbutanoate)]
- FVII KD % @ 0.03 mg/kg (factor VII): 15.24%
- EPO expression in ng/mL @ 0.3 mg/kg (hEPO): 14.3 ng/mL
- Size (nm) [1]: 92.35 nm
- EE % [1]: 90%
- PDI [2]: 0.05
- pKa ([3]; Table 3, formulation not indicated): 6.33
- Invivo lipid degradability ng/g of Liver tissue @ 0.3 mg/kg dose [4]: 1970 ± 379 ng/g

SMILES: CC1CCC(CCC(=O)OCC(C)(COC(=O)CCC2CCC(C)CC2)COC(=O)CCN(CCC(=O)OCC(C)(COC(=O)CCC2CCC(C)CC2)COC(=O)CCC2CCC(C)CC2)C(=O)OCCCN(C)C)CC1 (stereo not shown) [Lipid 46]
- FVII KD % @ 0.03 mg/kg (factor VII): 82.9%
- EPO expression in ng/mL @ 0.3 mg/kg (hEPO): 958.2 ng/mL
- Size (nm) [1]: 81.62 nm
- EE % [1]: 91.5%
- PDI [2]: 0.114
- pKa [3]: 7.08

SMILES: CC1CCC(CCC(=O)OCC(C)(COC(=O)CCC2CCC(C)CC2)COC(=O)CCN(CCCCCN(C)C)CCC(=O)OCC(C)(COC(=O)CCC2CCC(C)CC2)COC(=O)CCC2CCC(C)CC2)CC1 (stereo not shown) [Lipid 50, (((3,3′-((5-(dimethylamino)pentyl)azanedivl)bis(propanovl))bis(oxy))bis(methylene))bis(2-methylpropane-2,1,3-triyl)tetrakis(3-(4-methylcyclohexyl) propanoate)]
- FVII KD % @ 0.03 mg/kg (factor VII): 93.5%
- EPO expression in ng/mL @ 0.3 mg/kg (hEPO): 579.2 ng/mL
- Size (nm) [1]: 97.08 nm
- EE % [1]: 94.7%
- PDI [2]: 0.13
- pKa [3]: 7.04
- Invivo lipid degradability ng/g of Liver tissue @ 0.3 mg/kg dose [4]: 28100 ng/g

SMILES: CC1CCC(CCC(=O)OCC(C)(COC(=O)CCC2CCC(C)CC2)COC(=O)CCC(CCC(=O)OCC(C)(COC(=O)CCC2CCC(C)CC2)COC(=O)CCC2CCC(C)CC2)OC(=O)CCCN(C)C)CC1 (stereo not shown) [Lipid 51, Bis(2-methyl-3-((3-(4-methylcyclohexyl)propanoyl)oxy)-2-(((3-(4-methylcyclohexyl)propanoyl)oxy)methyl)propyl) 4-((4-(dimethylamino)butanoyl)oxy)heptanedioate]
- FVII KD % @ 0.03 mg/kg (factor VII): 65.23%
- EPO expression in ng/mL @ 0.3 mg/kg (hEPO): 868.5 ng/mL
- Size (nm) [1]: 65.71 nm
- EE % [1]: 90.4%
- PDI [2]: 0.059
- pKa [3]: 6.53
- Invivo lipid degradability ng/g of Liver tissue @ 0.3 mg/kg dose [4]: 36000 ng/g

SMILES: CN(C)CCCSC(=O)N(CCCC(=O)OCC(COC(=O)CCC1CCCCC1)COC(=O)CCC1CCCCC1)CCCC(=O)OCC(COC(=O)CCC1CCCCC1)COC(=O)CCC1CCCCC1 [Lipid 52]
- FVII KD % @ 0.03 mg/kg (factor VII): 69.66%
- EPO expression in ng/mL @ 0.3 mg/kg (hEPO): 17888.62 ng/mL
- Size (nm) [1]: 77.62 nm
- EE % [1]: 90.8%
- PDI [2]: 0.038
- pKa [3]: 7.2
- Invivo lipid degradability ng/g of Liver tissue @ 0.3 mg/kg dose [4]: BLOQ

SMILES: CN(C)CCCC(=O)OC(CCCC(=O)OC(COC(=O)CCC1CCCCC1)COC(=O)CCC1CCCCC1)CCCC(=O)OC(COC(=O)CCC1CCCCC1)COC(=O)CCC1CCCCC1 [Lipid 57, bis(1,3-bis((3-cyclohexylpropanoyl)oxy)propan-2-yl) 5-((4-(dimethylamino)butanoyl)oxy)nonanedioate]
- EPO expression in ng/mL @ 0.3 mg/kg (hEPO): 21737.69 ng/mL
- Size (nm) [1]: 78.98 nm
- EE % [1]: 94.3%
- PDI [2]: 0.065
- pKa [3]: 6.52
- Invivo lipid degradability ng/g of Liver tissue @ 0.3 mg/kg dose [4]: BLOQ

SMILES: CN(C)CCCC(=O)OC(CCCCCC(=O)OC(COC(=O)CCC1CCCCC1)COC(=O)CCC1CCCCC1)CCCCCC(=O)OC(COC(=O)CCC1CCCCC1)COC(=O)CCC1CCCCC1 [Lipid 59, bis(1,3-bis((3-cyclohexylpropanoyl)oxy)propan-2-yl) 7-((4-(dimethylamino)butanoyl)oxy)tridecanedioate]
- EPO expression in ng/mL @ 0.3 mg/kg (hEPO): 14723.72 ng/mL
- Size (nm) [1]: 74.77 nm
- EE % [1]: 92.1%
- PDI [2]: 0.068
- pKa [3]: 6.37
- Invivo lipid degradability ng/g of Liver tissue @ 0.3 mg/kg dose [4]: BLOQ

SMILES: CCCCC(C)(C)CC(=O)OCC(C)(COC(=O)CCC(CCC(=O)OCC(C)(COC(=O)CC(C)(C)CCCC)COC(=O)CC(C)(C)CCCC)OC(=O)CCCN(C)C)COC(=O)CC(C)(C)CCCC [Lipid 60, bis(3-((3,3-dimethylheptanol)oxy)-2-(((3,3-dimethylheptanol)oxy)methyl)-2-methylpropyl) 4-((4-(dimethylamino)butanoyl)oxy)heptanedioate]
- EPO expression in ng/mL @ 0.3 mg/kg (hEPO): 1631.03 ng/mL
- Size (nm) [1]: 65.95 nm
- EE % [1]: 93.9%
- PDI [2]: 0.087
- pKa [3]: 6.28
- Invivo lipid degradability ng/g of Liver tissue @ 0.3 mg/kg dose [4]: 53300 ng/g

SMILES: CN(C)CCCC(=O)OC(CCCC(=O)OCC(COC(=O)CCC1CCCCC1)COC(=O)CCC1CCCCC1)CCCC(=O)OCC(COC(=O)CCC1CCCCC1)COC(=O)CCC1CCCCC1 [Lipid 61, bis(3-((3-cyclohexylpropanoyl)oxy)-2-(((3-cyclohexylpropanoyl)oxy)methyl)propyl)5-((4-(dimethylamino)butanoyl)oxy)nonanedioate]
- EPO expression in ng/mL @ 0.3 mg/kg (hEPO): 4238.52 ng/mL
- Size (nm) [1]: 70.54 nm
- EE % [1]: 95.3%
- PDI [2]: 0.064
- pKa [3]: 6.84
- Invivo lipid degradability ng/g of Liver tissue @ 0.3 mg/kg dose [4]: BLOQ

SMILES: CN(C)CCCC(=O)OC(CCCC(=O)OCC(C)(COC(=O)CCC1CCCCC1)COC(=O)CCC1CCCCC1)CCCC(=O)OCC(C)(COC(=O)CCC1CCCCC1)COC(=O)CCC1CCCCC1 [Lipid 62, bis(3-((3-cyclohexylpropanoyl)oxy)-2-(((3-cyclohexylpropanoyl)oxy)methyl)-2-methylpropyl) 5-((4-(dimethylamino)butanoyl)oxy)nonanedioate]
- EPO expression in ng/mL @ 0.3 mg/kg (hEPO): 2930.66 ng/mL
- Size (nm) [1]: 72.43 nm
- EE % [1]: 95.3%
- PDI [2]: 0.056
- pKa [3]: 6.64
- Invivo lipid degradability ng/g of Liver tissue @ 0.3 mg/kg dose [4]: 6880 ng/g
